Assay [1] concerns the target T1, RpBgl8 (Reticulitermes perilucifugus, UniProt A0A7G5VX36).
T1 construct: forward primer encodes MSALKF
Description: pNPG hydrolysis with added glucose. In kind it is biochemical.

For assay [2], the target named is T2, RpBgl8 (Reticulitermes perilucifugus, UniProt A0A7G5VX36, F124W).
T2 construct: forward primer encodes MSALKF
Description: pNPG hydrolysis with added glucose. In kind it is biochemical. Particulars: 5 mM pNPG, phosphate buffer pH 7.0, 37 °C, reference of the reduction (no glucose or wild type) not told.

T2 sequence (A0A7G5VX36 entry or part of it F124W): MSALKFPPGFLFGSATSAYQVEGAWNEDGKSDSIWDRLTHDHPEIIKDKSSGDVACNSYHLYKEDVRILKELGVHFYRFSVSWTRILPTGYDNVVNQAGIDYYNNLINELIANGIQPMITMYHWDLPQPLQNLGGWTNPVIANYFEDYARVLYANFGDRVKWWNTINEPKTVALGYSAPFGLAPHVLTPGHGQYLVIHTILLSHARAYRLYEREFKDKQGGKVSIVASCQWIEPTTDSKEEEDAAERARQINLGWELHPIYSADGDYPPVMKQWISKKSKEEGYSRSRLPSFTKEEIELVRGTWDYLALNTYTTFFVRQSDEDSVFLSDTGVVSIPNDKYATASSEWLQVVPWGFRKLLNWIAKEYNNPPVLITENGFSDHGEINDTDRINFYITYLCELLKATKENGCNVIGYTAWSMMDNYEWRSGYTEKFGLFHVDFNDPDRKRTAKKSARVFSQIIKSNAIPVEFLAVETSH
T1 sequence (A0A7G5VX36 entry or part of it): as the sequence (A0A7G5VX36 entry or part of it F124W) above, with W124F counted along it

Molecule `OC[C@H]1OC(O)[C@H](O)[C@@H](O)[C@@H]1O` (some centres unmarked) [glucose] registered an activity at 4 M in assay [1] of 82%. Further, in assay [2], the “% reduction of activity at 4.0 M glucose” value is 54.2%.

For the origin of these results see publication PMC11989107, “Biochemical and Structural Characterization of a Highly Glucose-Tolerant β-Glucosidase from the Termite Reticulitermes perilucifugus” (International Journal of Molecular Sciences, 2025).
